For orientation: CC50 means the concentration that lowers cell viability or growth by half. Broadly, the EC90 is the concentration at which the effect reaches the 90% level. A low value points to greater potency. As usually defined, the CLint scaled is the capacity of the preparation to metabolise the compound, expressed as a volume cleared per time.

Consider nine molecules from ChEMBL document CHEMBL4411318, “Discovery of a Series of 2'-α-Fluoro,2'-β-bromo-ribonucleosides and Their Phosphoramidate Prodrugs as Potent Pan-Genotypic Inhibitors of Hepatitis C Virus” (J Med Chem, 2019).

A short description of series [1]: Cytotoxicity against human CCRF-CEM assessed reduction in cell viability after 4 days by MTT assay. It counts as cell-based. The note with it: CCRF-CEM cells.
In series [2] the test system is Vero. It counts as cell-based. The note with it: chlorocebus sabaeus, 72 h.
Series [3] has as its target RNA-directed RNA polymerase (Hepacivirus hominis) (UniProt O39930). The note with it: Hepatitis C virus subtype 1b.
Description: Inhibition of NS5B polymerase in wild type HCV genotype 1b infected in human Huh7 replicon cells after 5 days by RT-PCR assay
For series [4], the system named is Huh-7. Nature of the series: Cytotoxicity against human HuH7 cells assessed reduction in cell viability after 3 to 5 days by cellular ribosomal RNA amplification assay.
Series [5] can be described thus: Cytotoxicity against human PBMC assessed reduction in cell viability after 5 days by MTT assay. It counts as cell-based. The conditions noted are these: PBMC. (In general: Formazan colour is commonly taken as a measure of viable cells.)
Series [6] can be described thus: Cytotoxicity against human HuH7 cells assessed reduction in cell viability after 3 to 5 days by MTT assay. It is filed as cell-based, Huh-7.
The target of series [7] is DNA-directed RNA polymerase, mitochondrial (Homo sapiens, UniProt O00411). Nature of the series: Substrate activity at human POLRMT assessed as 5-radiolabled RNA/DNA incorporation levels at 100 uM after 2 hrs by PAGE analysis. It is filed as ADME.
Chain of DNA-directed RNA polymerase, mitochondrial (O00411 whole entry): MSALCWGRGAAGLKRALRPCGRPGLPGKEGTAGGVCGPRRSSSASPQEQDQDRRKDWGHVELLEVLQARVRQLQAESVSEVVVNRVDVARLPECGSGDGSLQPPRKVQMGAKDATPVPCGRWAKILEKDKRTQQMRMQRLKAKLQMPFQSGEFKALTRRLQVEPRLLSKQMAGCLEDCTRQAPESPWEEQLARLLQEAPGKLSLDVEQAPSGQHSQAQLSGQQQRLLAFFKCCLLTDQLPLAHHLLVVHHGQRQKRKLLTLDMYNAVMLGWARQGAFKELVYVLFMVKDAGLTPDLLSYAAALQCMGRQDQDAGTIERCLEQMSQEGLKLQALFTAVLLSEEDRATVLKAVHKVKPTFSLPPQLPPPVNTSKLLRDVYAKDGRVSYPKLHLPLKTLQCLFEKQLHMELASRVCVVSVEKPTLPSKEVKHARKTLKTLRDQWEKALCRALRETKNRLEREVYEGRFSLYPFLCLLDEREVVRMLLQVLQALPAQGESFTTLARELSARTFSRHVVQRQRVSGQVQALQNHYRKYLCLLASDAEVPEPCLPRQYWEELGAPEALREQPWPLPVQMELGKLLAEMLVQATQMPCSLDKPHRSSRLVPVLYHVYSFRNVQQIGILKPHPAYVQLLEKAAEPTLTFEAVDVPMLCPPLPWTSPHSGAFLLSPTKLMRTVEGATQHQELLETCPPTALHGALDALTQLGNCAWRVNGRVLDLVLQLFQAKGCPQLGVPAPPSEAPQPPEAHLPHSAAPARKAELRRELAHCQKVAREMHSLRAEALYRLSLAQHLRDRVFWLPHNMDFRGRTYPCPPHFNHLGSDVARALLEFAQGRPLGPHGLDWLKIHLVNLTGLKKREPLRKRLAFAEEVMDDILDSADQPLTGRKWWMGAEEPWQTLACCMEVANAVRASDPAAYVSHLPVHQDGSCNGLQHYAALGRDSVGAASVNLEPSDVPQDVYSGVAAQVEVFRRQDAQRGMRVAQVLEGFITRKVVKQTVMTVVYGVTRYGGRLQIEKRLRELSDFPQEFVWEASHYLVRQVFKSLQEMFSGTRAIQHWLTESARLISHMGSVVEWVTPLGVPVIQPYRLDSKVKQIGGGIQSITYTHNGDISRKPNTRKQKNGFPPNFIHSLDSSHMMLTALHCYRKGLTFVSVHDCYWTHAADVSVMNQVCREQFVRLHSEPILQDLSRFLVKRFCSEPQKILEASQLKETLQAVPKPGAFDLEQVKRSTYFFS
Series [8] in a line: in vitro. The conditions noted are these: human, liver microsomes. For orientation: Liver microsomes are a subcellular fraction often used to study metabolism.
Description: Intrinsic clearance in human liver measured from intrinsic clearance in human liver microsomes in presence of NADPH regenerating system by LC/MS/MS analysis

Chain of RNA-directed RNA polymerase (Hepacivirus hominis) (O39930 1-591): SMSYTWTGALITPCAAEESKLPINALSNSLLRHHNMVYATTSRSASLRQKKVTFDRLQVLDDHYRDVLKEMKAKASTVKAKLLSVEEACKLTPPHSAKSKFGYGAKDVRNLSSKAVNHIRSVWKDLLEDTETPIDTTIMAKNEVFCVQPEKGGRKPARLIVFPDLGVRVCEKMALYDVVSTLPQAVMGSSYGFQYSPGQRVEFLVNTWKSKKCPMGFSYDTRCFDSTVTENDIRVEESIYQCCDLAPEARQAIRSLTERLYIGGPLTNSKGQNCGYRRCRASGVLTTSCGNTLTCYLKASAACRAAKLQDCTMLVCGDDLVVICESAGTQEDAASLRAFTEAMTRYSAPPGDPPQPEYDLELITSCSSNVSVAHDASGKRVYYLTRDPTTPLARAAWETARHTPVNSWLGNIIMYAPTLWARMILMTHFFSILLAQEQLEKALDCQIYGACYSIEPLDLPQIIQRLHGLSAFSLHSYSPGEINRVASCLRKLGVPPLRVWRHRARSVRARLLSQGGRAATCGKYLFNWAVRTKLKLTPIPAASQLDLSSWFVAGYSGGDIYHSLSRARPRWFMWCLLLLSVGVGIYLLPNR

Turning to `Nc1nc2c(ncn2[C@@H]2O[C@H](CO)[C@@H](O)[C@]2(F)Br)c(=O)[nH]1`, the CC50 at 96 h in series [1] is > 100 µM. The CC50 in series [2] was > 100 µM; in series [4], > 10 µM. Moreover, the EC90 in series [3] was > 10 µM.

Consider `Nc1ccn([C@@H]2O[C@H](CO)[C@@H](O)[C@]2(F)Br)c(=O)n1`, for which the CC50 at 96 h in series [1] was > 100 µM. The CC50 in series [2] was > 100 µM; in series [4], > 10 µM. Besides, it took 9.5 µM to reach the 90% level in series [3] (EC90).

Consider `CC(C)OC(=O)[C@H](C)NP(=O)(OC[C@H]1O[C@@H](n2cnc3c(=O)[nH]c(N)nc32)[C@](F)(Br)[C@H]1O)Oc1ccccc1` (some centres undefined), for which the CC50 at 96 h in series [1] was > 100 µM. The molecule also gave an EC90 in series [3] of 1.8 µM.

Take `CC(C)OC(=O)[C@H](C)NP(=O)(OC[C@H]1O[C@@H](n2cnc3c(N)ncnc32)[C@](F)(Br)[C@H]1O)Oc1ccccc1` (some centres undefined): the CC50 at 120 h in series [5] is > 100 µM. Further, the CC50 at 96 h in series [1] is > 100 µM. Besides, the CC50 in series [6] is > 10 µM.

For the molecule `C[C@@]1(O)[C@H](O)[C@@H](COP(=O)(O)OP(=O)(O)OP(=O)(O)O)O[C@H]1n1ccc(=O)[nH]c1=O`, the Activity in series [7] was determined as 9.8%.

For `CC(C)OC(=O)[C@H](C)NP(=O)(OC[C@H]1O[C@@H](n2ccc(N)nc2=O)C(F)(Br)C1O)Oc1ccccc1` (single isomer, unassigned), the CC50 at 96 h in series [1] was > 100 µM. In addition, the figures for the CC50 in series [2] and in series [4] were > 100 µM and > 10 µM, respectively. In series [3], this molecule yielded an EC90 of 1.8 µM.

As for `Nc1ncnc2c1ncn2[C@@H]1O[C@H](CO)C(O)C1(F)Br` (single isomer, unassigned), in series [1], the CC50 at 96 h is > 100 µM. The CC50 was > 100 µM in series [2] and > 10 µM in series [4]. Besides, the EC90 in series [3] is > 10 µM.

In the case of `O=C(O)Cc1ccccc1Nc1c(Cl)cccc1Cl` [DICLOFENAC], in series [8], the CLint scaled came to 116 mL/min/kg.

In the case of `O=c1ccn([C@@H]2O[C@H](COP(=O)(O)OP(=O)(O)OP(=O)(O)O)[C@@H](O)[C@H]2O)c(=O)[nH]1` [URIDINE TRIPHOSPHATE], the Activity in series [7] is on record as 100%.
